# Several values for one entry are separate records, joined by “and”; a condition that tells them apart may be missing. Identical values can stand only once. Counter-ions that a name gives are not always drawn.
# Target: T1, recombinant TDP1 (Homo sapiens, UniProt Q9NUW8)
# T1 construct: incubated with 40 pM full-length recombinant TDP1 or TDP1 (148–608)
# Test: in vitro gel-based fluorescence TDP1 catalytic assay
# Format: biochemical
# Settings: 40 pM recombinant TDP1, 1 nM N14Y DNA substrate, 15 min, room temperature; read-out: TDP1 IC50
# Protocol: We subjected select virtual screen hits to evaluation of TDP1 inhibitory potencies using in vitro gel-based fluorescence TDP1 catalytic assays (Fig. 2). […] To further explore this class of compounds, we purchased from TargetMol a library of approximately 90 β-lactams as 10 mM solutions in DMSO. […] We examined TDP1 inhibitory potencies of the compounds using the in vitro gel-based fluorescence assays as previously described[21]–[24]. Briefly, a 5’-Cy5-labeled DNA substrate (N14Y, 5’-Cy5-[…]-pY-3’, 1 nM) was incubated in TDP1 reaction buffer with recombinant TDP1 or truncated TDP1(148–608) (40 pM) in the absence or presence of inhibitors for 15 min at room temperature. […] The TDP1 inhibition IC50 values were calculated based on gel images of the cleavage product (N14P, 5’-Cy5-[…]-p-3’) (Fig. 3A and Table S2).
# The inhibition of TDP1 and TDP2 were conducted according to gel-based methods as previously described[21]–[24],[45]. Briefly, 1 nM of the DNA substrate (N14Y, 5´Cy5-[…]-pY-3´) was incubated with 40 pM full-length recombinant TDP1 or TDP1 (148–608) in the absence or presence of inhibitors for 15 min at room temperature in TDP1 reaction buffer (50 mM Tris-HCl, pH 7.5, 80 mM KCl, 2 mM EDTA, 1 mM DTT, 40 µg/mL BSA and 0.01% Tween 20). The inhibition of TDP2 was also conducted by using similar conditions. […] The reactions of both TDP1 and TDP2 were stopped by adding an equal volume of gel loading buffer (99.5% (v/v) formamide, 5 mM EDTA). The samples were then subjected to a 20% denaturing PAGE gel followed by gel scanning using a Typhoon FLA 9500 scanner (GE Healthcare). The IC50 values of the TDP1 inhibitors were calculated by comparing the percentage of the cleavage product (N14P, 5´Cy5-[…]-p-3´) produced to that in the DMSO control. The IC50 values of the TDP2 inhibitors were calculated by comparing the percentage of the cleavage product (PN18, 5’-p-[…]-Cy5-3’) produced to that in the DMSO control.
# T1 sequence (Q9NUW8 whole entry): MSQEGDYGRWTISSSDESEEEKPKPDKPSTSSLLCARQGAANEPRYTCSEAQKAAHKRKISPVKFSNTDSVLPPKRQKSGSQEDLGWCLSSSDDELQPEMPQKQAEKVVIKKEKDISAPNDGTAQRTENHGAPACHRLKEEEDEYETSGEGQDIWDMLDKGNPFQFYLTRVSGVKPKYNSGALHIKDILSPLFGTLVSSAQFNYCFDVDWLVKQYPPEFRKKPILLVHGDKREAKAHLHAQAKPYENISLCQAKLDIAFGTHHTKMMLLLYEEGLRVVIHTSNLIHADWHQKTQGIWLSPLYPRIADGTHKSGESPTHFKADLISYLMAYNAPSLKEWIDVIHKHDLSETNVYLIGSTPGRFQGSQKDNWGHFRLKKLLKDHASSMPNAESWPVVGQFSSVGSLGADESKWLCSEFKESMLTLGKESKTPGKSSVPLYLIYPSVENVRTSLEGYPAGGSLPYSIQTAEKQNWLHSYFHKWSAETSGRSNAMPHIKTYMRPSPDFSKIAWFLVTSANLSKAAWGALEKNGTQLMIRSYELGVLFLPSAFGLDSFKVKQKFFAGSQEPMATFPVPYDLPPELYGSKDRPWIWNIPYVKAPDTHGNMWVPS
row,Compound,IC50
1,"Cc1cc(O)c(C(=O)N[C@@H](C(=O)N[C@@H]2C(=O)N3C(C(=O)O)=C(CSc4nnnn4C)CS[C@H]23)c2ccc(O)cc2)cn1 [LH1, Cefpiramide acid]",> 1000 µM
2,"Nc1nc(/C(=C/CC(=O)O)C(=O)N[C@@H]2C(=O)N3C(C(=O)O)=CCS[C@H]23)cs1 [LD10, Ceftibuten dihydrate]",> 1000 µM
3,"CO/N=C(\C(=O)N[C@@H]1C(=O)N2C(C(=O)O)=C(CSc3nc(=O)c(=O)[nH]n3C)CS[C@H]12)c1csc(N)n1 [LG2, Ceftriaxone sodium]",> 1000 µM
4,"Cc1nnc(SCC2=C(C(=O)O)N3C(=O)[C@@H](NC(=O)Cn4cnnn4)[C@H]3SC2)s1 [LH10, Cefazolin sodium salt]",530 µM
5,"Nc1nc2c(c(=O)[nH]1)N=C(CNc1ccc(C(=O)N[C@@H](CCC(=O)O)C(=O)O)cc1)CN2 [compound 10, dihydrofolic acid dihydrate]",60.1 µM and 60 µM
6,Cefotiam Hexetil Hydrochloride [LC9],> 1000 µM
7,"CO/N=C(\C(=O)N[C@@H]1C(=O)N2C(C(=O)[O-])=C(C[n+]3cccc4c3CCCC4)CS[C@H]12)c1csc(N)n1 [LD11, Cefquinome sulfate]",> 1000 µM
8,"CC1=C(C(=O)O)N2C(=O)C(N)C2SC1 (stereo not shown) [LB12, Cefalexine EP IMpurity B]",> 1000 µM
9,"C[C@H]1[C@H](NC(=O)/C(=N\OC(C)(C)C(=O)O)c2csc(N)n2)C(=O)N1S(=O)(=O)O [LH3, Aztreonam]",620 ± 61 µM
10,"CC/C=C(\C(=O)N[C@@H]1C(=O)N2C(C(=O)OCOC(=O)C(C)(C)C)=C(COC(N)=O)CS[C@H]12)c1csc(N)n1 [LD6, Cefcapene Pivoxil Hydrochloride]",> 1000 µM
11,"CO/N=C(\C(=O)N[C@@H]1C(=O)N2C(C(=O)O)=C(C[N+]3(C)CCCC3)CS[C@H]12)c1csc(N)n1 [LB1, Cefepime Dihydrochloride Monohydrate]",> 1000 µM
12,"C/C=C/C1=C(C(=O)O)N2C(=O)[C@@H](NC(=O)[C@H](N)c3ccc(O)cc3)[C@H]2SC1 [LG8, Cefprozil hydrate]",> 1000 µM
13,"Cn1nnnc1SCC1=C(C(=O)O)N2C(=O)[C@@H](NC(=O)[C@H](OC=O)c3ccccc3)[C@H]2SC1 [LD4, Cefamandole nafate]",> 1000 µM
14,"CO[C@@]1(NC(=O)C2SC(=C(C(N)=O)C(=O)O)S2)C(=O)N2C(C(=O)O)=C(CSc3nnnn3C)CS[C@@H]21 (stereo partly shown) [LB4, Cefotetan]",379 µM
15,"CC(=O)OCC1=C(C(=O)O)N2C(=O)[C@@H](NC(=O)CSc3ccncc3)[C@H]2SC1 [LC8, Cephapirin Sodium]",496 µM
16,"Cc1nnc(SCC2=C(C(=O)O)N3C(=O)[C@@H](NC(=O)Cn4cc(Cl)c(=O)c(Cl)c4)[C@H]3SC2)s1 [LA8, Cefazedone]",> 1000 µM
17,"Cc1nnc(SCC2=C(C(=O)O)N3C(=O)[C@@H](NC(=O)Cn4cnnn4)[C@H]3SC2)s1 [LA3, Cefazolin]",> 1000 µM
18,"CO/N=C(\C(=O)N[C@@H]1C(=O)N2C(C(=O)O)=C(CSC(=O)c3ccco3)CS[C@H]12)c1csc(N)n1 [LG1, Sodium ceftiofur]",> 1000 µM
19,"COCC1=C(C(=O)OC(C)OC(=O)OC(C)C)N2C(=O)[C@@H](NC(=O)/C(=N\OC)c3csc(N)n3)[C@H]2SC1 (stereo partly shown) [LD2, Cefpodoxime proxetil]",> 1000 µM
20,"CO/N=C(\C(=O)N[C@@H]1C(=O)N2C(C(=O)O)=C(CSc3nc(C)c(CC(=O)O)s3)CS[C@H]12)c1csc(N)n1 [LA5, Cefodizime Sodium]",> 1000 µM
21,"CO/N=C(\C(=O)N[C@@H]1C(=O)N2C(C(=O)O)=C(Cn3ccc(=N)n3CCO)CS[C@H]12)c1csc(N)n1 [LB7, Cefoselis Sulfate]",> 1000 µM
22,"CC1(C)S[C@@H]2[C@H](NC(=O)C(c3ccccc3)S(=O)(=O)O)C(=O)N2[C@H]1C(=O)O (stereo partly shown) [LA6, Sulbenicillin Sodium]",> 1000 µM
23,"CCO/N=C(\C(=O)N[C@@H]1C(=O)N2C(C(=O)[O-])=C(Sc3nc(-c4cc[n+](C)cc4)cs3)CS[C@H]12)c1nsc(NP(=O)(O)O)n1 [LA11, Ceftaroline fosamil]",> 1000 µM
24,"C[C@@H](O)[C@H]1C(=O)N2C(C(=O)O)=C(S[C@@H]3CN[C@H](CNS(N)(=O)=O)C3)[C@H](C)[C@H]12 [LE10, Doripenem Hydrate]",> 1000 µM
25,"Cc1onc(-c2ccccc2)c1C(=O)NC1C(=O)N2[C@@H]1SC(C)(C)[C@@H]2C(=O)O (stereo partly shown) [LH8, Oxacillin sodium]",> 1000 µM
26,"CO/N=C(\C(=O)N[C@@H]1C(=O)N2C(C(=O)O)=C(CSc3nnnn3C)CS[C@H]12)c1csc(N)n1 [LG4, Cefmenoxime hydrochloride]",> 1000 µM
27,"C[C@@H](O)[C@H]1C(=O)N2C(C(=O)O)=C(S[C@@H]3CN[C@H](C(=O)N(C)C)C3)[C@H](C)[C@H]12 [LF1, Meropenem]",> 1000 µM
28,"C=CC1=C(C(=O)O)N2C(=O)[C@@H](NC(=O)/C(=N\O)c3csc(N)n3)[C@H]2SC1 [LB10, Cefdinir]",> 1000 µM
29,"O=C(O)C1=C(CSc2nnnn2CS(=O)(=O)O)CS[C@@H]2[C@H](NC(=O)[C@H](O)c3ccccc3)C(=O)N12 [LF9, Cefonicid sodium]",> 1000 µM
30,"NC(=O)c1cc[n+](CC2=C(C(=O)O)N3C(=O)[C@@H](NC(=O)[C@@H](c4ccccc4)S(=O)(=O)[O-])[C@H]3SC2)cc1 [LC1, Cefsulodine sodium]",> 1000 µM

# The remaining lines, values ahead:
row,IC50,Compound
1,> 1000 µM,"CC1(C)S[C@@H]2[C@H](NC(=O)C(C(=O)O)c3ccccc3)C(=O)N2[C@H]1C(=O)O (stereo partly shown) [LG5, Carbenicillin disodium]"
2,> 1000 µM,"CC1=C(C(=O)O)N2C(=O)[C@@H](NC(=O)[C@H](N)c3ccc(O)cc3)[C@H]2SC1 [LE1, Cefadroxil]"
3,> 1000 µM,"CCOc1ccc2ccccc2c1C(=O)N[C@@H]1C(=O)N2[C@@H]1SC(C)(C)[C@@H]2C(=O)O [LF5, nafcillin sodium]"
4,> 1000 µM,"CC1(C)S[C@@H]2[C@H](NC(=O)[C@H](N)c3ccccc3)C(=O)N2[C@H]1C(=O)OCOC(=O)[C@@H]1N2C(=O)C[C@H]2S(=O)(=O)C1(C)C [LE4, Sultamicillin Tosylate]"
5,> 1000 µM,"Cc1onc(-c2c(Cl)cccc2Cl)c1C(=O)N[C@@H]1C(=O)N2[C@@H]1SC(C)(C)[C@@H]2C(=O)O [LH7, Dicloxacillin sodium monohydrate]"
6,> 1000 µM,"CCN1CCN(C(=O)N[C@@H](C(=O)N[C@@H]2C(=O)N3[C@@H]2SC(C)(C)[C@@H]3C(=O)O)c2ccccc2)C(=O)C1=O [LG3, Piperacillin sodium salt]"
7,> 1000 µM,"CCN1CCN(C(=O)N[C@@H](C(=O)N[C@@H]2C(=O)N3C(C(=O)O)=C(CSc4nnnn4C)CS[C@H]23)c2ccc(O)cc2)C(=O)C1=O [LB8, Cefoperazone]"
8,> 1000 µM,"CC1(C)S[C@@H]2[C@H](NC(=O)[C@H](C(=O)O)c3ccsc3)C(=O)N2[C@H]1C(=O)O [LB5, Ticarcillin sodium]"
9,> 1000 µM,"CC(=O)OCC1=C(C(=O)O)N2C(=O)[C@@H](NC(=O)CSC(=NC(C)C)NC(C)C)[C@H]2SC1 [LA4, Cefathiamidine]"
10,> 1000 µM,"CO/N=C(\C(=O)N[C@@H]1C(=O)N2C(C(=O)OCOC(=O)C(C)(C)C)=C(/C=C\c3scnc3C)CS[C@H]12)c1csc(N)n1 [LF3, Cefditoren pivoxil]"
11,> 1000 µM,"CC1(C)S[C@@H]2[C@H](NC(=O)Cc3ccccc3)C(=O)N2[C@H]1C(=O)O [LH9, Penicillin G sodium salt]"
12,> 1000 µM,"CC1(C)S[C@@H]2[C@H](NC(=O)[C@H](NC(=O)N3CCNC3=O)c3ccccc3)C(=O)N2[C@H]1C(=O)O [LF4, Azlocillin sodium]"
13,> 1000 µM,"CO/N=C(\C(=O)N[C@@H]1C(=O)N2C(C(=O)OC(C)OC(C)=O)=C(COC(N)=O)CS[C@H]12)c1ccco1 (stereo partly shown) [LF10, Cepazine]"
14,> 1000 µM,"C[n+]1ccn(C[C@@]2(C)[C@H](C(=O)[O-])N3C(=O)C[C@H]3S2(=O)=O)n1 [LF2, AAI101]"
15,111 µM,"CO/N=C(\C(=O)N[C@@H]1C(=O)N2C(C(=O)O)=C(COC(N)=O)CS[C@H]12)c1ccco1 [LF11, Cefuroxime sodium]"
16,179 µM and 180 µM,"CO[C@@]1(NC(=O)C(C(=O)O)c2ccc(O)cc2)C(=O)N2C(C(=O)O)=C(CSc3nnnn3C)CO[C@@H]21 (stereo partly shown) [LC4, Latamoxef sodium]"

# Same assay, conditions: TDP1 IC50, 40 pM recombinant TDP1, 1 nM N14Y DNA substrate, 15 min, room temperature
row,IC50 [µM],Compound
1,> 1000,"CON=C(C(=O)NC1C(=O)N2C(C(=O)OCOC(=O)C(C)(C)C)=C(C)CSC12)c1csc(N)n1 (stereo not shown) [LB3, Cefetamet pivoxil hydrochloride]"

# Same assay, conditions: read-out: TDP1 IC50
row,Compound,IC50 [µM]
1,"CC(=O)OCC1=C(C(=O)O)N2C(=O)[C@@H](NC(=O)CSc3ccncc3)[C@H]2SC1 [LA7, Cephapirin Benzathine]",> 1000
2,"CO[C@@]1(NC(=O)CSC[C@@H](N)C(=O)O)C(=O)N2C(C(=O)O)=C(CSc3nnnn3C)CS[C@@H]21 [LE3, Cefminox Sodium]",> 1000

# From PMC12280126, “Potent β-lactam-based tyrosyl-DNA phosphodiesterase 1 inhibitors identified by a virtual screen” (Scientific Reports, 2025)
